Measurements from patent US11987795B2, “Methods of modulating SLC7A11 pre-mRNA transcripts for diseases and conditions associated with expression of SLC7A11” (The Broad Institute, Inc., priority 2020, dated 2024).
Where two headings read alike, the source gives them in different places.

Key:
[1] = target: T1, cystine/glutamate antiporter SLC7A11 (xCT) (Homo sapiens, UniProt Q9UPY5); experiment: Glutamate secretion with sulfasalazine inhibition of the transporter; assay type: cell-based; details: K562 cells; FIG. S7A-E
T1 construct: endogenous in cells; host or cells: K562 (probable)
T1 sequence (Q9UPY5 1-501): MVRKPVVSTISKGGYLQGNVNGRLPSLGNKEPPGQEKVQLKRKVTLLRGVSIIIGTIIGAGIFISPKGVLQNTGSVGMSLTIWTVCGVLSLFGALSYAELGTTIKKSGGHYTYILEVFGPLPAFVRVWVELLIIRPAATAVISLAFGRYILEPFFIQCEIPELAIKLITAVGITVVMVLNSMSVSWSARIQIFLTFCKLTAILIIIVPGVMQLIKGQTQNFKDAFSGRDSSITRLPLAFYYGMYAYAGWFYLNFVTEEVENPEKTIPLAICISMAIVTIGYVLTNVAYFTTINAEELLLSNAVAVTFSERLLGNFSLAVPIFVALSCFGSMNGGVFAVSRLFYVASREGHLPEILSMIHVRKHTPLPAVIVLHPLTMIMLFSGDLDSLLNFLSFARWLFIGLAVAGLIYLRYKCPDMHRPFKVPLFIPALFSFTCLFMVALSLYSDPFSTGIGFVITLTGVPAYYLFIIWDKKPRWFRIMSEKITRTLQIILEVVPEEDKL
T1 sequence (P08195 1-529 partner): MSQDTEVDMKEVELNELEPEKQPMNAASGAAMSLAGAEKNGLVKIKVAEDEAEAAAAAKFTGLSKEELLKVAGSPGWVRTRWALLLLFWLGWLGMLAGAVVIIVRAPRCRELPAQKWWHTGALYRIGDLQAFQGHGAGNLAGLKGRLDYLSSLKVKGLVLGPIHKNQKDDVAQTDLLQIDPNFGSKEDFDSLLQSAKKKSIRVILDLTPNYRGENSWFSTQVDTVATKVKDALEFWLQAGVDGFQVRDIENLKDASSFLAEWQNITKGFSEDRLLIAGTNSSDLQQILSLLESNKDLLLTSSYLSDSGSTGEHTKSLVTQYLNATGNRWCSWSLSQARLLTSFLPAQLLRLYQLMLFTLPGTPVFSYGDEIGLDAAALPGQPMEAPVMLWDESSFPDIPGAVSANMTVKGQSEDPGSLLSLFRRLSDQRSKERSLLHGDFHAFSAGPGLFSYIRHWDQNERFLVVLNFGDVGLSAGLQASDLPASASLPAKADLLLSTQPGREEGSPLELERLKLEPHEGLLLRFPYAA
Method: Glutamate levels were determined using a commercially available AMPLEX kit (Life Technologies). LUC7L2WT, LUC7L2Rescue (LUC7L2KO cells were a LUC7L2 cDNA was stably expressed), LUC7L2KO and ASO treated K562 or HAP1 cells were grown for 24 h in fresh culture media and counted. Cells were then washed with PBS, the media was replaced and the cells were incubated for another 3 h. Medias were then collected and centrifuged at 2,000 g for 3 min, and glutamate concentrations were determined from the supernatant.

[2] = system: K562 cells; experiment: Maximal respiration with sulfasalazine inhibition of the transporter; assay type: cell-based, human; details: FIG. S7A-E
Method: 1.25×10^5 K562 cells were plated on a Seahorse plate in Seahorse XF DMEM media (Agilent) containing 25 mM glucose and 4 mM glutamine (ThermoFisher Scientific). Oxygen consumption and extracellular acidification rates were simultaneously recorded by a Seahorse XFe96 Analyzer (Agilent) using the mito stress test protocol, in which cells were sequentially perturbed by […] oligomycin, 1 μM CCCP and […] antimycin (Sigma). Data were analyzed using the Seahorse Wave Desktop Software (Agilent). Data were not corrected for carbonic acid derived from respiratory CO2. For seahorse in HeLa and HAP1 cells, 5×104 and 1×10^5 cells were plated in a 96-well seahorse plate the day before the experiment (respectively). Cells were trypsinized after the experiment and recounted and the data was normalized to cell number.

[3] = target: T2, PFKM (Homo sapiens, UniProt P08237); details: PFKM / PFK inhibition, cited from earlier work
T2 sequence (P08237 2-780 limits assumed): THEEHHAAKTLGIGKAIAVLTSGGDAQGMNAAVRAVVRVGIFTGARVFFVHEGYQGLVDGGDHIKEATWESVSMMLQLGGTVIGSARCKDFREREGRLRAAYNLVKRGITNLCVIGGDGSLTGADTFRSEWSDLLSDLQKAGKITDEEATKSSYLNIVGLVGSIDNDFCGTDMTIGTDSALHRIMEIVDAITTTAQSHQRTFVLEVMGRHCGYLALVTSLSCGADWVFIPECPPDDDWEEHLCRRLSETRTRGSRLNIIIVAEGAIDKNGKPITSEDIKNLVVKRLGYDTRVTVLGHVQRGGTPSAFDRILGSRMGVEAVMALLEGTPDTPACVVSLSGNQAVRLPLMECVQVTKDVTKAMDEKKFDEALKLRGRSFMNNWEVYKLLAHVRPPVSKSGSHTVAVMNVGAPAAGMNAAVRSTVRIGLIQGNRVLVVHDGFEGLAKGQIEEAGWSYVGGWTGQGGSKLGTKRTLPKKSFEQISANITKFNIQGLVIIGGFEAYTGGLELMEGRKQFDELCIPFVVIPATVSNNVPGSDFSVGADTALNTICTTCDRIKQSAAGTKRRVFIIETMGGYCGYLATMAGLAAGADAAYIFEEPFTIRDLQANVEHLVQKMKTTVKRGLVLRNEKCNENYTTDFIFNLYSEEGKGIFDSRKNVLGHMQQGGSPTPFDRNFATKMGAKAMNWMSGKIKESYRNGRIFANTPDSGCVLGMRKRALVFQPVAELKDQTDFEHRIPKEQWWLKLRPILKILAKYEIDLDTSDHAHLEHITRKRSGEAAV

[4] = system: mdx mice; experiment: Wire hang test in mdx mice; assay type: in vivo; details: dantrolene 10 mg/kg/day with oligo AON23 10 mg/kg/week versus AON23 10 mg/kg/week alone, p=0.022
[5] = humans, long term administration; cited from earlier work

## O=C(O)c1cc(/N=N/c2ccc(S(=O)(=O)Nc3ccccn3)cc2)ccc1O [sulfasalazine (SAS), sulfasalazine]
[1]
  glutamate secretion: prevented glutamate secretion
[2]
  maximal respiration: promoted maximal respiration

## tryptolinamide [tryptonilamide]
[3]
  shift of energy metabolism from glycolysis to OXPHOS: glycolysis to OXPHOS shift
[3]; listed as tryptolinamide
  shift of energy metabolism from glycolysis to OXPHOS: strong effect

## O=C1CN(/N=C/c2ccc(-c3ccc([N+](=O)[O-])cc3)o2)C(O)=N1 [Dantrolene]
[4]
  functional benefit in wire hang test: functional benefit
[5]
  dose shown to be safe: up to 8 mg/kg/day
